The test system of this test is murine fibroblasts (NIH3T3) over-expressing human IGF-1 receptor. The experiment in a line: Inhibition of IGF-stimulated cell proliferation (BrdU incorporation), Test (c). Type of test: cell-based. The conditions noted are these: NIH3T3/IGFR cells, IGF-1 20 ng/ml. The method, then: The construction of murine fibroblasts (NIH3T3) over-expressing human IGF-1 receptor has been described by Lammers et al (EMBO J, 8, 1369-1375, 1989). These cells show a proliferative response to IGF-I which can be measured by BrdU incorporation into newly synthesised DNA. Compound potency was determined as causing inhibition of the IGF-stimulated proliferation in the following assay:
Compounds are initially dissolved in DMSO to 10 mM, followed by dilutions in DMEM+1% FCS+glutamine to give a range from […] in 1-0.00045% DMSO final concentration in assay well.
Exponentially growing NIH3T3/IGFR cells were harvested and seeded in complete growth medium into a flat-bottomed 96 well tissue culture grade plate (Costar 3525) at 1.2×10^4 cells per well in a volume of 100 μl.
Growth medium was carefully removed from each well using a multi-channel pipette. Wells were carefully rinsed three times with 200 μl with HBSS. 100 μl of starvation medium was added to each well and the plate was re-incubated for 24 hours.
50 μl of a 4× concentrate of test compound was added to appropriate wells. Cells were incubated for 30 minutes with compound alone before the addition of IGF. […]
The incorporation of BrdU in the cells (after a 4 h incorporation period) was assessed using the BrdU Cell Proliferation Elisa according to the manufacturer's protocol.
Background: Incorporation of labelled thymidine or its analogues reports DNA synthesis.

SMILES strings stand for the structures.

In general, IC50 refers to the midpoint of a concentration-inhibition curve. A lower IC50 goes with greater potency in that assay.

Take `Cc1ccc(Nc2cc(C)nc(N3CCC[C@H]3c3cc(-c4ccccn4)no3)n2)nc1` [Example 13, S-6-Methyl-2-{2-[3-(pyrid-2-yl)isoxazol-5-yl]pyrrolidin-1-yl}-4-(5-methylpyrid-2-ylamino)pyrimidine]: the IC50 was 130 nM.
In the case of `Cc1cc(Nc2ccccn2)nc(N2CCC[C@H]2c2cc(-c3ccccn3)no2)n1` [Example 1, S-6-Methyl-2-{2-[3-(pyrid-2-yl)isoxazol-5-yl]pyrrolidin-1-yl}-4-(pyrid-2-ylamino)pyrimidine], inhibition was half-maximal at 310 nM (IC50).

Values taken from patent publication US20080171742A1, “4-(Pyrid-2-Yl) Amino Substituted Pyrimidine as Protein Kinase Inhibitors” (AsraZeneca, priority 2005, published 2008).
